Measurements from patent US5214034A, “Catechol derivatives, and preventive and remedial preparations for regressive disorders in the central nervous system containing the same” (priority 1986, dated 1993).
Like-named read-outs stand apart in the source and are kept apart here.

Tests used:
Acute toxicity (LD50) = settings: mouse, in vivo
Method: The catechol derivative having normal type saturated lower alkyl groups on the ring was administered by intravenous injection (i.v.), intraperitoneal injection (i.p.) or oral route (p.o.) to male ddy mice of 4-week old. The LD50 values (mg/kg) were measured by an ordinary method.

NGF = NGF production in the central nervous system of normal rats by intraperitoneal injection (NGF content of brain tissue, ELISA); format: in vivo, rat (Wistar male); settings: Table 7, i.p., three times every other day; for NGF content after 48 hr.: 48 hours after final administration; for NGF content after 7 days: 7 days after final administration
Method: The derivative (A), e.g. R=Two H, R1 =H and R2 =n-propyl (hereinafter referred to as 4-n-propylcatechol), was administered to normal rats by intraperitoneal injection, and the effect was examined.
4-n-Propylcatechol was administered by intraperitoneal injection 4 times every other day in a dosage of 5 mg/kg. The rats were killed two days after the final administration. The NGF content of each parts in brain was measured. The content was compared with those of control group which was administered saline alone.
A variety of the derivative was administered three times every other day. The content of NGF in the forebrain after 48 hours and 7 days from the final administration was measured and illustrated in Table 7.
Wistar male rats (9-10-week old, 200-250 g of weight) were intraperitoneally injected with the test derivative in a volume of 0.5 ml as a saline solution, emulsion or suspension. Dose and administration times were the same as above. The rats were killed by a hard spinal blow two days after the final administration. Each parts of brain were dissected and subjected to the following treatment under ice cooling.
Each parts of brain were weighed and homogenized for 30 strokes by a Dounce type homogenizer in a homogenization buffer (0.1 M Tris-HCl, containing 2% bovine serum albumin fraction V, 2% gelatin, 1.0 M NaCl, 0.02% NaN3, 2 mM EDTA and 2.6 kiu/ml of aprotinin, pH 7.6) at a concentration of 10% (W/V) (only septum 5% (W/V)). Each homogenate was centrifuged at 100,000 xg for 10 minutes, and 50 μl of supernatant was added with the same amount of a dilution buffer (0.1 M Tris-HCl containing 2% bovine serum albumin fraction V, 0.05% NaN3 and 20 mM CaCl2, pH 7.6). Determination was conducted in accordance with a method of S. Furukawa et al. by using a high sensitivity ELISA system on 8-NGF which was described in J. Neurochem., 40, 734-744 (1983). Lower limit of determination is 0.25 pg/ml. Data are indicated as a mean value ±SE on the NGF content of tissue (pg/mg wet tissue) of five rats.

[1] = tested on: production and secretion of NGF on L-M cells; assay: Promoting action for the production and secretion of NGF on L-M cells of mouse (ELISA); format: cell-based; settings: Mus musculus
Description: Catecholamines have also been found in a relatively high concentration to accelerate these functions without being mediated by adrenergic receptors [Y. Furukawa et al., J. Biol. Chem., 261, 6039-6047 (1986)].
The compound having a high activity in Table 1, that is, the catechol derivative having a n-alkyl group in the 3 or 4 position on the ring has been observed an acute cell toxicity in higher concentrations. The toxicity was considered the result of two hydroxyl groups in the catechol structure. Then the hydroxyl groups were esterified or etherified and the resulting derivative was examined the effect on the activity for the production and secretion of NGF.
The experiment was performed according to the procedures of Y. Furukawa et al. which is described in J. Bis Chem., 261, 6039-6047 (1986).
The medium was cultured for 3 days at a temperature of 37° C. After completing the confluency (about 10^6 cells/well), the medium was changed to Medium 199 (0.5 ml/well) containing 0.5% bovine serum albumin (Fraction V, a product of Armour Co.). The sample of the derivative is contained in the medium at a prescribed concentration as illustrated in the Tables.

[2] = tested on: production and secretion of NGF in brain astroglial cells; assay: Promoting activity for the production and secretion of NGF in brain astroglial cells of mouse (ELISA)
Method: The experiment was performed by inducing the astroglial cells from mouse forebrain to culture system according to the procedures of S. Furukawa et al. which is described in Biochem. Biophys. Res. Commun., 136, 57-63 (1986).
That is, forebrains of 8-day old mice were dissected out and cut into small pieces. […] Cells and cell clamps were recovered by centrifugation at 200 xg for 5 minutes. They were cultured in Dulbecco modified Eagle's medium (a product of Gibco Co. hereinafter abbreviated as DMEM) containing 10% of fetal calf serum, […] of penicillin, and 50 μg/ml of streptomycin, for 10 to 14 days with medium changes every 3 days. After completing confluency, the cells were dissociated by trypsin treatment and recultured in new culture flasks. This procedure was repeated further twice and more. […] The cells will hereinafter be referred to as astroglial cells.
Astroglial cells were innoculated in 24-well plates having a well surface area of 2.1 cm^2 (a product of Falcon Co.) at a cell density of about 3×10^4 cells/well and cultured for 3 days in DMEM . medium supplemented with 10% of fetal calf serum. After completing confluency about 10^7 cells/well), the medium was changed to DMEM medium (0.5 ml/well) supplemented with 0.5% of bovine serum albumin ((fraction V) and cultured for 3 days. The culture was further continued with medium changes every 3 days. After cells were practically synchronized in the quiscent stage, the medium was changed to 0.5 ml of the medium supplemented with 0.5% of bovine serum albumin and containing a prescribed concentration of test sample as illustrated in Tables. […] Data are expressed as fold increase in NGF content over that in the absence of the test sample. […] Data are presented as means ±SE of four determinations.

[3] = ip, intraperitoneal injection, read-out: LD50 i.p.
[4] = intravenous injection, read-out: LD50 i.v.
[5] = oral route, read-out: LD50 p.o.
[6] = 24 h, read-out: Ratio of NGF increase
[7] = 24 h, read-out: Ratio of NGF increase, Table 3, 0.10 mM, 24 hours, mean ± SE of four determinations
[8] = 24 h, read-out: Ratio of NGF increase, Table 3, 0.25 mM, 24 hours, mean ± SE of four determinations
[9] = 24 h, read-out: Ratio of NGF increase, 24-hr culture
[10] = 48 h, read-out: Ratio of NGF increase, 48-hr culture

| SMILES | LD50 (Acute toxicity (LD50); [3]) | LD50 (Acute toxicity (LD50); [4]) | LD50 (Acute toxicity (LD50); [5]) | NGF content after 48 hr. (NGF) | NGF content after 7 days (NGF) | fold induction at 30 µM [1, 6] | fold induction at 100 µM [1, 6] | fold induction at 100 µM [2, 7] | fold induction at 250 µM [2, 8] | further results |
| --- | --- | --- | --- | --- | --- | --- | --- | --- | --- | --- |
| CCCc1ccc2c(c1)OC(C)(C)O2 [R = --C(CH3)2 --, R1 = H, R2 = n-Propyl, 5-n-Propyl-2,2-dimethyl-1,3-benzodioxol] | > 1500 mg/kg | > 500 mg/kg | > 3500 mg/kg | 1.15 ± 0.18 pg/mg wet tissue of frontal co | 1.51 ± 0.49 pg/mg wet tissue of frontal co | – | – | – | – | – |
| CCCc1ccc2oc(=O)c(=O)oc2c1 [R = --CO.CO--, R1 = H, R2 = n-Propyl, 6-n-propyl-1,4-benzodioxine-2,3-dione] | > 1250 mg/kg | > 250 mg/kg | > 3000 mg/kg | 1.54 ± 0.20 pg/mg wet tissue of frontal co | 2.02 ± 0.47 pg/mg wet tissue of frontal co | – | – | – | – | – |
| CCc1ccc(O)c(O)c1 [R = Two H, R1 = H, R2 = Ethyl, 4-ethylcatechol] | > 300 mg/kg | > 75 mg/kg | > 1000 mg/kg | 1.96 ± 0.42 pg/mg wet tissue of frontal co | 1.73 ± 0.39 pg/mg wet tissue of frontal co | 10 ± 0.97 | 12.1 ± 1.09 | 55.2 ± 3.24 | 64.7 ± 4.26 | – |
| Cc1ccc(O)c(O)c1 [R = Two H, R1 = H, R2 = Methyl, 4-Methylcatechol] | > 200 mg/kg | > 50 mg/kg | > 500 mg/kg | 2.26 ± 0.24 pg/mg wet tissue of frontal co | 1.64 ± 0.46 pg/mg wet tissue of frontal co | 8.91 ± 0.43 | 2.36 ± 1.9 | 80.8 ± 4.21 | 4.89 ± 1.37 | fold induction at 30 µM [1, 9]: 8.77 ± 0.66; fold induction at 150 µM [1, 9]: 2.87 ± 0.54; fold induction at 30 µM [1, 10]: 9.21 ± 0.69; fold induction at 150 µM [1, 10]: 2.49 ± 0.88; fold induction at 100 µM ([2]; 24 h, read-out: Ratio of NGF increase, 24-hr culture, Table 4, 0.10 mM, 24-hr culture): 77.3 ± 9.21; fold induction at 250 µM ([2]; 24 h, read-out: Ratio of NGF increase, 24-hr culture, Table 4, 0.25 mM, 24-hr culture): 6.59 ± 1.34; fold induction at 100 µM ([2]; 48 h, read-out: Ratio of NGF increase, 48-hr culture, Table 4, 0.10 mM, 48-hr culture): 106 ± 7.61; fold induction at 250 µM ([2]; 48 h, read-out: Ratio of NGF increase, 48-hr culture, Table 4, 0.25 mM, 48-hr culture): 2.47 ± 1.22 |
| CCCCc1ccc(O)c(O)c1 [R = Two H, R1 = H, R2 = n-Butyl, 4-n-butylcatechol] | > 500 mg/kg | > 150 mg/kg | > 1500 mg/kg | 1.88 ± 0.46 pg/mg wet tissue of frontal co | 2.25 ± 0.33 pg/mg wet tissue of frontal co | 8.21 ± 1.1 | 14 ± 1.33 | 59.7 ± 3 | 88.3 ± 2.47 | – |
| Cc1cccc(O)c1O [R = Two H, R1 = Methyl, R2 = H] | – | – | – | – | – | 8.34 ± 0.82 | 3.92 ± 1.23 | 76.3 ± 6.34 | 5.02 ± 1.98 | LD50 (Acute toxicity (LD50); ip, read-out: LD50 i.p.): > 200 mg/kg; LD50 (Acute toxicity (LD50); iv, read-out: LD50 i.v.): > 50 mg/kg; LD50 (Acute toxicity (LD50); po, read-out: LD50 p.o.): > 500 mg/kg |
| CCCc1cccc(O)c1O [R = Two H, R1 = n-Propyl, R2 = H] | – | – | – | 2.03 ± 0.37 pg/mg wet tissue of frontal co | 2.00 ± 0.43 pg/mg wet tissue of frontal co | 9.81 ± 0.92 | 16.3 ± 2.04 | 72.9 ± 7.09 | 97 ± 9.24 | LD50 (Acute toxicity (LD50); ip, read-out: LD50 i.p.): > 500 mg/kg; LD50 (Acute toxicity (LD50); iv, read-out: LD50 i.v.): > 150 mg/kg; LD50 (Acute toxicity (LD50); po, read-out: LD50 p.o.): > 1500 mg/kg |
| CCCc1ccc(OC(C)=O)c(OC(C)=O)c1 [R = Two acetyl, R1 = H, R2 = n-Propyl, 1,2-diacetoxy-4-propylbenzene] | > 750 mg/kg | > 250 mg/kg | > 2500 mg/kg | 1.71 ± 0.28 pg/mg wet tissue of frontal co | 2.16 ± 0.46 pg/mg wet tissue of frontal co | – | – | – | – | – |
| CNC[C@H](O)c1ccc(O)c(O)c1 [l-epinephrine, reference compound] | – | – | – | – | – | – | – | – | – | fold induction at 50 µM ([1]; 24 h, read-out: activity (NGF increase), 0.05 mM): 6.29 ± 0.11; fold induction at 150 µM ([1]; 24 h, read-out: activity (NGF increase), 0.15 mM): 14 ± 0.83; fold induction at 100 µM ([2]; 24 h, read-out: activity (NGF increase), 0.10 mM): 8.62 ± 1.21; fold induction at 250 µM ([2]; 24 h, read-out: activity (NGF increase), 0.25 mM): 14.6 ± 2.67 |
